Data reported in ChEMBL document CHEMBL5614371, “Quinazolines annelated at the N(3)-C(4) bond: Synthesis and biological activity” (Eur J Med Chem, 2024).
In brackets after ≈: the same amount, converted by molar mass.

Legend:
Staphylococcus aureus [1] = test: microbe, parasite or virus in culture; settings: ATCC 25923
Streptococcus pyogenes [2] = test: microbe, parasite or virus in culture; settings: ATCC 19615
Klebsiella pneumoniae = test: microbe, parasite or virus in culture
Candida albicans = test: microbe, parasite or virus in culture
Trichoderma viride = test: microbe, parasite or virus in culture
Aspergillus niger = test: microbe, parasite or virus in culture
Staphylococcus aureus [3] = test: microbe, parasite or virus in culture
Streptococcus pyogenes [4] = test: microbe, parasite or virus in culture
Escherichia coli = test: microbe, parasite or virus in culture
Bacillus subtilis = test: microbe, parasite or virus in culture
HepG2 [5] = test: cells; settings: Homo sapiens, HepG2, 48 h
HCT-116 [6] = test: cells; settings: Homo sapiens, HCT-116, 48 h
[7] = system: Mycobacterium tuberculosis; test: microbe, parasite or virus in culture; settings: H37Rv
[8] = system: Mycobacterium tuberculosis; test: microbe, parasite or virus in culture; settings: H37Rv ATCC 27294, 168 h
A549 [9] = test: cells; settings: Homo sapiens, A549, 48 h
HCT-116 [10] = test: cells; settings: Homo sapiens, HCT-116, 24 h
HepG2 [11] = test: cells; settings: Homo sapiens, HepG2, 24 h
MCF7 [12] = test: cells; settings: Homo sapiens, MCF7, 24 h
MCF7 [13] = test: cells; settings: Homo sapiens, MCF7, 48 h
A549 [14] = test: cells; settings: Homo sapiens, A549, 48 h; remark: listed apart in the source
MDA-MB-231 [15] = test: cells; settings: Homo sapiens, MDA-MB-231, 48 h
NCI-H1299 [16] = test: cells; settings: Homo sapiens, NCI-H1299, 48 h
HCT-116 [17] = test: cells; settings: Homo sapiens, HCT-116, 48 h; remark: listed apart in the source
MCF7 [18] = test: cells; settings: Homo sapiens, MCF7, 48 h; remark: listed apart in the source
HCT-116 [19] = test: cells; settings: Homo sapiens
MCF7 [20] = test: cells; settings: Homo sapiens
MCF7 [21] = test: cells; settings: Homo sapiens; remark: listed apart in the source
HepG2 [22] = test: cells; settings: Homo sapiens
HCT-116 [23] = test: cells; settings: Homo sapiens; remark: listed apart in the source
MCF7 [24] = test: cells; settings: Homo sapiens, MCF7, 48 h; remark: listed apart in the source
HepG2 [25] = test: cells; settings: Homo sapiens, HepG2, 48 h; remark: listed apart in the source
HepG2 [26] = test: cells; settings: Homo sapiens; remark: listed apart in the source
HCT-116 [27] = test: cells; settings: Homo sapiens; remark: listed apart in the source
A549 [28] = test: cells; settings: Homo sapiens, A549, 48 h; remark: listed apart in the source
NCI-H1299 [29] = test: cells; settings: Homo sapiens, NCI-H1299, 48 h; remark: listed apart in the source
MDA-MB-231 [30] = test: cells; settings: Homo sapiens, MDA-MB-231, 48 h; remark: listed apart in the source
HepG2 [31] = test: cells; settings: Homo sapiens, HepG2, 48 h; remark: listed apart in the source
HepG2 [32] = test: cells; settings: Homo sapiens, HepG2, 48 h; remark: listed apart in the source
MCF7 [33] = test: cells; settings: Homo sapiens, MCF7, 48 h; remark: listed apart in the source
MCF7 [34] = test: cells; settings: Homo sapiens, MCF7, 48 h; remark: listed apart in the source
cells = settings: Homo sapiens, Breast carcinoma cell
NCI-H1299 [35] = test: cells; settings: Homo sapiens
U-87 MG = test: cells; settings: Homo sapiens, 72 h
HCT-116 [36] = test: cells; settings: Homo sapiens, HCT-116, 72 h
A549 [37] = test: cells; settings: Homo sapiens, A549, 72 h

SMILES: Cc1ccc(S(=O)(=O)Oc2ccc(-c3nc4ccccc4c4nc(=S)[nH]n34)cc2)cc1
- MIC (Staphylococcus aureus [1]): 3.12 µg/mL (≈ 6.97 µM)
- MIC (Streptococcus pyogenes [2]): 6.25 µg/mL (≈ 13.9 µM)

SMILES: Nc1ccccc1-c1cc2ccccc2[nH]1
- MIC (Klebsiella pneumoniae): 2.5 µg/mL (≈ 12 µM)
- MIC (Candida albicans): 2.5 µg/mL (≈ 12 µM)
- MIC (Trichoderma viride): 2.5 µg/mL (≈ 12 µM)
- MIC (Aspergillus niger): 2.5 µg/mL (≈ 12 µM)
- MIC (Staphylococcus aureus [3]): 2.5 µg/mL (≈ 12 µM)
- MIC (Streptococcus pyogenes [4]): 2.5 µg/mL (≈ 12 µM)
- MIC (Escherichia coli): 2.5 µg/mL (≈ 12 µM)
- MIC (Bacillus subtilis): 2.5 µg/mL (≈ 12 µM)

SMILES: Oc1ccc(/C=N/Nc2nc3ccccc3c3nncn23)cc1
- IC50 (HepG2 [5]): 4.43 µM
- IC50 (HCT-116 [6]): 48.5 µM

SMILES: CCCc1nc2cc(C)ccc2c2nc3ccccc3n12
- IC50 [7]: 12.5 µg/mL (≈ 45.4 µM)
- IC50 [8]: 0.4 µg/mL (≈ 1.45 µM)

SMILES: FC(F)(F)c1nc2ccccc2c2cc3cc(Cl)ccc3n12
- IC50 (A549 [9]): 30.7 µM

SMILES: CN(C)c1ccc(/C=N/NC(=O)c2ccc(Nc3nc4ccccc4c4nncn34)cc2)cc1
- IC50 (HCT-116 [10]): 8.27 µM
- IC50 (HepG2 [11]): 7.91 µM

SMILES: CCOC(=O)c1ccc2c3cc(Cl)c(Br)cc3ncn2c1=O
- IC50 (MCF7 [12]): 3.44 µg/mL (≈ 9.01 µM)

SMILES: c1ccc2cc(-c3cc4c5ccccc5ncn4n3)ccc2c1
- GI50 (MCF7 [13]): 2030 nM
- GI50 (A549 [14]): 1980 nM

SMILES: Oc1ccc(-c2nc3ccccc3c3cc(-c4ccccc4)nn23)cc1
- GI50 (MDA-MB-231 [15]): 1950 nM
- GI50 (NCI-H1299 [16]): 2970 nM

SMILES: O=c1nc(-c2ccc(Nc3nc4ccccc4c4nncn34)cc2)cc(-c2ccccc2)[nH]1
- IC50 (HCT-116 [17]): 11.8 µM

SMILES: Clc1ccc2c(c1)cc1c3ccccc3nc(-c3ccccc3)n21
- IC50 (A549 [9]): 30.7 µM

SMILES: COc1ccc(-c2cc(-c3ccc(Nc4nc5ccccc5c5nncn45)cc3)nc(=O)[nH]2)cc1
- IC50 (HCT-116 [17]): 11.8 µM

SMILES: Cc1ccc(-c2nc3ccccc3c3cc4ccccc4n23)cc1
- IC50 (A549 [9]): 30.7 µM

SMILES: O=[N+]([O-])c1ccc(-c2nc3ccccc3c3cc4ccccc4n23)cc1
- IC50 (A549 [9]): 30.7 µM

SMILES: c1ccc(-c2nc3ncccc3c3cc4ccccc4n23)cc1
- IC50 (A549 [9]): 30.7 µM

SMILES: N#Cc1ccc2c3cc(Cl)c(Br)cc3ncn2c1=O
- IC50 (MCF7 [18]): 4.1 µg/mL (≈ 12.3 µM)

SMILES: c1ccc(-c2nc3ccccc3c3cccn23)cc1
- IC50 (A549 [9]): 30.7 µM

SMILES: CN(C)c1nc2ccccc2c2nncn12
- IC50 (HCT-116 [19]): 22.5 µM

SMILES: O=C(N/N=C/c1c(Cl)cccc1Cl)c1ccc(Nc2nc3ccccc3c3nncn23)cc1
- IC50 (HCT-116 [10]): 7.41 µM
- IC50 (HepG2 [11]): 5.42 µM

SMILES: CCOC(=O)c1nn2c(NC(C)(C)CC(C)(C)C)nc3ccccc3c2c1C(=O)OCC
- GI50 (A549 [14]): 1100 nM
- GI50 (NCI-H1299 [16]): 1290 nM

SMILES: FC(F)(F)c1ccc2c(c1)cc1c3ccccc3nc(-c3ccccc3)n21
- IC50 (A549 [9]): 30.7 µM

SMILES: O=C(/C=C\c1nc2ccccc2c2nc3ccccc3n12)c1ccc(Cl)c(Cl)c1
- IC50 (MCF7 [20]): 61 µg/mL (≈ 146 µM)
- IC50 (MCF7 [21]): 61 µg/mL (≈ 146 µM)

SMILES: Cc1ccc(-c2nc3ccccc3c3cc4cc(Cl)ccc4n23)cc1
- IC50 (A549 [9]): 30.7 µM

SMILES: O=C(N/N=C/c1ccccc1O)c1ccc(Nc2nc3ccccc3c3nncn23)cc1
- IC50 (HCT-116 [10]): 7.1 µM
- IC50 (HepG2 [11]): 7.42 µM

SMILES: Cc1c(O)n2cnc3cc(Br)c(Cl)cc3c2nc1=O
- IC50 (MCF7 [18]): 3.5 µg/mL (≈ 10.3 µM)

SMILES: Clc1cccc(Cl)c1/C=N/Nc1nc2ccccc2c2nncn12
- IC50 (HepG2 [22]): 4.43 µM
- IC50 (HCT-116 [23]): 5.22 µM

SMILES: N#CC1=CC=C2c3cc(Cl)c(Br)cc3N=CN2C1N (configuration not stated)
- IC50 (MCF7 [18]): 3.45 µg/mL (≈ 10.3 µM)

SMILES: Cc1ccc(-c2cc(-c3ccc(Nc4nc5ccccc5c5nncn45)cc3)nc(=O)[nH]2)cc1
- IC50 (HCT-116 [17]): 11.8 µM

SMILES: COc1ccc(-c2nc3ccccc3c3cc4ccccc4n23)cc1
- IC50 (A549 [9]): 30.7 µM

SMILES: Clc1ccc2nc(-c3ccccc3)n3c4ccccc4cc3c2c1
- IC50 (A549 [9]): 30.7 µM

SMILES: Clc1cc2c(cc1Br)ncn1cnnc21
- IC50 (MCF7 [24]): 3.39 µg/mL (≈ 12 µM)

SMILES: COc1ccc(C2CC(c3ccc(Nc4nc5ccccc5c5nncn45)cc3)=NN2)cc1 (configuration not stated)
- IC50 (HepG2 [25]): 16.1 µM

SMILES: Clc1ccc(-c2nc3ccccc3c3cc4cc(Cl)ccc4n23)cc1
- IC50 (A549 [9]): 30.7 µM

SMILES: O=C(NNc1nc2ccccc2c2nncn12)NC1CCCCC1
- IC50 (HepG2 [26]): 7.98 µM
- IC50 (DNA): 42.9 µM
- IC50 (HCT-116 [27]): 5.57 µM

SMILES: c1ccc(C2CC(c3ccc(Nc4nc5ccccc5c5nncn45)cc3)=NN2)cc1 (configuration not stated)
- IC50 (HepG2 [25]): 16.1 µM

SMILES: O=C(N/N=C/c1ccccc1Cl)c1ccc(Nc2nc3ccccc3c3nncn23)cc1
- IC50 (HCT-116 [10]): 5.21 µM
- IC50 (HepG2 [11]): 4.88 µM

SMILES: O=c1nc2c3cc(Cl)c(Br)cc3ncn2c(O)c1-c1ccccc1
- IC50 (MCF7 [18]): 3.44 µg/mL (≈ 8.54 µM)

SMILES: COc1ccc(C(=O)c2c(N)nn3c(NC(C)(C)CC(C)(C)C)nc4ccccc4c23)cc1
- IC50 (A549 [28]): 1740 nM
- IC50 (NCI-H1299 [29]): 2040 nM
- IC50 (MDA-MB-231 [30]): 2450 nM

SMILES: Clc1ccc(-c2nc3ccccc3c3cc4ccccc4n23)cc1
- IC50 (A549 [9]): 30.7 µM

SMILES: c1ccc(Nc2ccccc2-c2nc3ccccc3c3nc(-c4ccccc4)nn23)cc1
- IC50 (HepG2 [31]): 33.3 µg/mL (≈ 80.5 µM)
- IC90 (HepG2 [32]): 59.9 µg/mL (≈ 145 µM)
- IC90 (MCF7 [33]): 137 µg/mL (≈ 332 µM)
- IC50 (MCF7 [34]): 87 µg/mL (≈ 210 µM)

SMILES: Cc1ccc2c(c1)cc1c3ccccc3nc(-c3ccccc3)n21
- IC50 (A549 [9]): 30.7 µM

SMILES: CC(C)(C)CC(C)(C)Nc1nc2ccccc2c2c(C(=O)c3ccc(F)cc3)c(N)nn12
- IC50 (A549 [28]): 1060 nM
- IC50 (cells): < 2500 nM
- IC50 (NCI-H1299 [35]): < 2500 nM
- IC50 (NCI-H1299 [29]): 1320 nM
- IC50 (MDA-MB-231 [30]): 1930 nM

SMILES: S=C(NNc1nc2ccccc2c2nncn12)NC1CCCCC1
- IC50 (DNA): 48.1 µM

SMILES: COC(=O)c1nn2c(NC(C)(C)C)nc3cc(Cl)ccc3c2c1C(=O)OC
- IC50 (U-87 MG): 2600 nM
- IC50 (HCT-116 [36]): 2300 nM
- IC50 (A549 [37]): 1100 nM

SMILES: O=C(N/N=C/c1ccc(Cl)cc1)c1ccc(Nc2nc3ccccc3c3nncn23)cc1
- IC50 (HCT-116 [10]): 11 µM
- IC50 (HepG2 [11]): 8.64 µM

SMILES: Cc1ccc2nc(-c3ccccc3)n3c4ccccc4cc3c2c1
- IC50 (A549 [9]): 30.7 µM

SMILES: Cc1ccc(C2CC(c3ccc(Nc4nc5ccccc5c5nncn45)cc3)=NN2)cc1 (configuration not stated)
- IC50 (HepG2 [25]): 16.1 µM

SMILES: c1ccc(-c2nc3ccccc3c3cc4ccccc4n23)cc1
- IC50 (A549 [9]): 30.7 µM

SMILES: COc1ccc(-c2nc3ccccc3c3cc4cc(Cl)ccc4n23)cc1
- IC50 (A549 [9]): 30.7 µM

SMILES: Cc1nc2ccccc2c2cc3ccccc3n12
- IC50 (A549 [9]): 30.7 µM

SMILES: CC(C)(C)CC(C)(C)Nc1nc2ccccc2c2c(C#N)c(N)nn12
- IC50 (cells): < 2500 nM
- IC50 (NCI-H1299 [35]): < 2500 nM
- IC50 (NCI-H1299 [29]): 2020 nM
- IC50 (MDA-MB-231 [30]): 1960 nM

SMILES: CCCc1nc2ccccc2c2nc3ccccc3n12
- IC50 [7]: 0.78 µg/mL (≈ 2.98 µM)
- IC50 [8]: 0.78 µg/mL (≈ 2.98 µM)

SMILES: COc1cccc2c1C(=O)c1c(O)c3c(c(O)c1C2=O)C[C@@](O)(C(=O)CO)C[C@@H]3O[C@H]1C[C@H](N)[C@H](O)[C@H](C)O1 [DOXORUBICIN]
- IC50 (HCT-116 [23]): 9.63 µM
- IC50 (HepG2 [25]): 7.94 µM
- IC50 (DNA): 31.3 µM
